{
  "source": "patent US9409891B2",
  "about": "“Solid forms of an antiviral compound” (Gilead Sciences, Inc., priority 2012, dated 2016)",
  "key": {"[1]": {"assay": "Desolvation screening (vacuum oven)", "assay_type": "physicochemical", "details": "heated to about 110~120° C. in a vacuum oven", "procedure": "Another method of generating anhydrous forms is desolvation. In this study, the solvates and hydrates of Compound I were heated to about 110˜120° C. in a vacuum oven to desolvate."}, "[2]": {"assay": "Stable form competition study in ACN", "assay_type": "physicochemical", "details": "ACN mother liquor", "procedure": "To further verify the stability of Form II, competitive crystallization was conducted by adding Forms I through V into a high concentration solution of amorphous Compound I in ACN. […] The mother liquor obtained, which was saturated in terms of Form II, was used in another test in which other forms (Forms I, III, IV and V) were added."}, "[3]": {"assay": "Follow-up stable form screening (Form II stirred in solvents at about 22° C.)", "assay_type": "physicochemical", "details": "about 22° C., Form II start", "procedure": "In the follow-up stable form screening experiments, the starting materials were Form II. The solids were stirring in the solvents list below at about 22° C. in 2 ml vials."}, "[4]": {"details": "dried at 70° C."}, "[5]": {"assay": "First stable form screening (amorphous Compound I in 19 solvents/mixtures at ambient conditions)", "assay_type": "physicochemical", "details": "for 2-Week solids / 24 h solids / solubility: amorphous start, ambient; for solubility: thermodynamic from solid", "procedure": "The first stable form screening was conducted using 19 solvents/mixtures at ambient conditions. The starting material was amorphous. Anti-solvents, either water or heptane, were used to precipitate the solids.\nForm I is a hydrate form obtained from ACN/water 50:50 mixture. Form II is an anhydrous form obtained from ACN. […] Solids in water and heptane were amorphous. Other samples remained as solutions.\nIt appears to be a solvated form. […] Solids in water and heptane remained amorphous. Other samples remained as solution."}, "[6]": {"details": "2 Me-THF, init. conc. 77.4 mg/mL"}, "[7]": {"details": "Acetone, init. conc. 79.6 mg/mL"}, "[8]": {"details": "Heptane, init. conc. 12.7 mg/mL"}, "[9]": {"details": "Toluene, init. conc. 16.2 mg/mL"}},
  "data": [
    {"compound": "CC1=CC[C@H](C(=O)N(c2cc(C#CC(C)(C)C)sc2C(=O)O)C2CCC(O)(CO[C@H]3CCOC3)CC2)CC1.O", "note": "(relative stereo) [Form VIII, 5-(3,3-dimethylbutyn-1-yl)-3-[(cis-4-hydroxy-4-{[(3S)-tetrahydrofuran-3-yloxy]methyl}cyclohexyl){[(1R)-4-methylcyclohex-3-en-1-yl]carbonyl}amino]thiophene-2-carboxylic acid monohydrate]", "values": [
      {"measurement": "Final Form after desolvation", "setting": "[1]", "value": "VIII"}
    ]},
    {"compound": "CC1=CC[C@H](C(=O)N(c2cc(C#CC(C)(C)C)sc2C(=O)O)[C@H]2CC[C@](O)(CO[C@H]3CCOC3)CC2)CC1.O", "note": "(relative stereo) [Form I, 5-(3,3-dimethylbutyn-1-yl)-3-[(cis-4-hydroxy-4-{[(3S)-tetrahydrofuran-3-yloxy]methyl}cyclohexyl){[(1R)-4-methylcyclohex-3-en-1-yl]carbonyl}amino]thiophene-2-carboxylic acid hydrate]", "values": [
      {"measurement": "Behaviour of solids added to mother liquor saturated in Form II", "setting": "[2]", "value": "dissolved quickly"},
      {"measurement": "solubility", "setting": "[3]; Water, value for Form I", "value": 0.25, "unit": "mg/mL"},
      {"measurement": "Final Form after desolvation", "setting": "[1]", "value": "Amorphous"},
      {"measurement": "Solid state after drying (XRPD)", "setting": "[4]", "value": "partially became amorphous"}
    ]},
    {"compound": "5-(3,3-dimethylbutyn-1-yl)-3-[(cis-4-hydroxy-4-{[(3S)-tetrahydrofuran-3-yloxy]methyl}cyclohexyl){[(1R)-4-methylcyclohex-3-en-1-yl]carbonyl}amino]thiophene-2-carboxylic acid hydrate and/or solvate [Form III]", "values": [
      {"measurement": "Form conversion in slurry", "setting": "[5]; EtOH/water slurry, after 2 weeks of stirring", "value": "converted to Form IV"},
      {"measurement": "Form conversion upon drying", "setting": "[5]; solids from EtOH/water, dried", "value": "converted to Form IV"}
    ]},
    {"compound": "CC1=CC[C@H](C(=O)N(c2cc(C#CC(C)(C)C)sc2C(=O)O)[C@H]2CC[C@](O)(CO[C@H]3CCOC3)CC2)CC1", "note": "[Compound I, 5-(3,3-dimethylbutyn-1-yl)-3-[(cis-4-hydroxy-4-{[(3S)-tetrahydrofuran-3-yloxy]methyl}cyclohexyl){[(1R)-4-methylcyclohex-3-en-1-yl]carbonyl}amino]thiophene-2-carboxylic acid]", "values": [
      {"measurement": "2-Week solids", "setting": "[5]; [6]", "value": "solution"},
      {"measurement": "24 h solids", "setting": "[5]; [6]", "value": "solution"},
      {"measurement": "2-Week solids", "setting": "[5]; [7]", "value": "solution"},
      {"measurement": "24 h solids", "setting": "[5]; [7]", "value": "solution"},
      {"measurement": "2-Week solids", "setting": "[5]; EtOAc, init. conc. 49.4 mg/mL", "value": "solution"},
      {"measurement": "24 h solids", "setting": "[5]; EtOAc, init. conc. 49.4 mg/mL", "value": "solution"},
      {"measurement": "2-Week solids", "setting": "[5]; EtOH, init. conc. 76 mg/mL", "value": "solution"},
      {"measurement": "24 h solids", "setting": "[5]; EtOH, init. conc. 76 mg/mL", "value": "solution"},
      {"measurement": "2-Week solids", "setting": "[5]; [8]", "value": "amorphous"},
      {"measurement": "24 h solids", "setting": "[5]; [8]", "value": "amorphous"},
      {"measurement": "24 h solids", "setting": "[5]; IPA/water, init. conc. 47.7 mg/mL", "value": "solution"},
      {"measurement": "2-Week solids", "setting": "[5]; IPA, init. conc. 95.4 mg/mL", "value": "solution"},
      {"measurement": "24 h solids", "setting": "[5]; IPA, init. conc. 95.4 mg/mL", "value": "solution"},
      {"measurement": "2-Week solids", "setting": "[5]; IPAc, init. conc. 39.6 mg/mL", "value": "solution"},
      {"measurement": "24 h solids", "setting": "[5]; IPAc, init. conc. 39.6 mg/mL", "value": "solution"},
      {"measurement": "2-Week solids", "setting": "[5]; MEK, init. conc. 65.6 mg/mL", "value": "solution"},
      {"measurement": "24 h solids", "setting": "[5]; MEK, init. conc. 65.6 mg/mL", "value": "solution"},
      {"measurement": "2-Week solids", "setting": "[5]; MIBK, init. conc. 60.2 mg/mL", "value": "solution"},
      {"measurement": "24 h solids", "setting": "[5]; MIBK, init. conc. 60.2 mg/mL", "value": "solution"},
      {"measurement": "24 h solids", "setting": "[5]; MTBE, init. conc. >45 mg/mL", "value": "solution"},
      {"measurement": "2-Week solids", "setting": "[5]; MeCl2, init. conc. 36 mg/mL", "value": "solution"},
      {"measurement": "24 h solids", "setting": "[5]; MeCl2, init. conc. 36 mg/mL", "value": "solution"},
      {"measurement": "2-Week solids", "setting": "[5]; MeOH, init. conc. 87.4 mg/mL", "value": "solution"},
      {"measurement": "24 h solids", "setting": "[5]; MeOH, init. conc. 87.4 mg/mL", "value": "solution"},
      {"measurement": "2-Week solids", "setting": "[5]; THF, init. conc. 53.4 mg/mL", "value": "solution"},
      {"measurement": "24 h solids", "setting": "[5]; THF, init. conc. 53.4 mg/mL", "value": "solution"},
      {"measurement": "2-Week solids", "setting": "[5]; [9]", "value": "solution"},
      {"measurement": "24 h solids", "setting": "[5]; [9]", "value": "solution"},
      {"measurement": "2-Week solids", "setting": "[5]; Water, init. conc. 11 mg/mL", "value": "amorphous"},
      {"measurement": "24 h solids", "setting": "[5]; Water, init. conc. 11 mg/mL", "value": "amorphous"},
      {"measurement": "solubility", "setting": "[5]; aqueous with cosolvent or surfactant or cyclodextrin, ACN/water (50:50), solids I", "value": 0.23, "unit": "mg/mL"},
      {"measurement": "solubility", "setting": "[5]; aqueous with cosolvent or surfactant or cyclodextrin, EtOH/water, solids III then IV", "value": 14.5, "unit": "mg/mL"},
      {"measurement": "solubility", "setting": "[5]; aqueous with cosolvent or surfactant or cyclodextrin, IPA/water, 2-week solids V", "value": 1.78, "unit": "mg/mL"},
      {"measurement": "solubility", "setting": "[5]; organic solvent or mixture, 2 Me-THF, remained solution", "value": "> 77.4", "unit": "mg/mL"},
      {"measurement": "solubility", "setting": "[5]; organic solvent or mixture, ACN, solids II", "value": 13, "unit": "mg/mL"},
      {"measurement": "solubility", "setting": "[5]; organic solvent or mixture, Acetone, remained solution", "value": "> 79.6", "unit": "mg/mL"},
      {"measurement": "solubility", "setting": "[5]; organic solvent or mixture, EtOAc, remained solution", "value": "> 49.4", "unit": "mg/mL"},
      {"measurement": "solubility", "setting": "[5]; organic solvent or mixture, EtOH, remained solution", "value": "> 76", "unit": "mg/mL"},
      {"measurement": "solubility", "setting": "[5]; organic solvent or mixture, IPA, remained solution", "value": "> 95.4", "unit": "mg/mL"},
      {"measurement": "solubility", "setting": "[5]; organic solvent or mixture, IPAc, remained solution", "value": "> 39.6", "unit": "mg/mL"},
      {"measurement": "solubility", "setting": "[5]; organic solvent or mixture, MEK, remained solution", "value": "> 65.6", "unit": "mg/mL"},
      {"measurement": "solubility", "setting": "[5]; organic solvent or mixture, MIBK, remained solution", "value": "> 60.2", "unit": "mg/mL"},
      {"measurement": "solubility", "setting": "[5]; organic solvent or mixture, MTBE, 2-week solids V", "value": 316, "unit": "mg/mL"},
      {"measurement": "solubility", "setting": "[5]; organic solvent or mixture, MeCl2, remained solution", "value": "> 36", "unit": "mg/mL"},
      {"measurement": "solubility", "setting": "[5]; organic solvent or mixture, MeOH, remained solution", "value": "> 87.4", "unit": "mg/mL"},
      {"measurement": "solubility", "setting": "[5]; organic solvent or mixture, THF, remained solution", "value": "> 53.4", "unit": "mg/mL"},
      {"measurement": "solubility", "setting": "[5]; organic solvent or mixture, Toluene, remained solution", "value": "> 16.2", "unit": "mg/mL"}
    ]},
    {"compound": "CC1=CC[C@H](C(=O)N(c2cc(C#CC(C)(C)C)sc2C(=O)O)[C@H]2CC[C@](O)(CO[C@H]3CCOC3)CC2)CC1.CCC(C)=O", "note": "(relative stereo) [Form X, 5-(3,3-dimethylbutyn-1-yl)-3-[(cis-4-hydroxy-4-{[(3S)-tetrahydrofuran-3-yloxy]methyl}cyclohexyl){[(1R)-4-methylcyclohex-3-en-1-yl]carbonyl}amino]thiophene-2-carboxylic acid methyl ethyl ketone]", "values": [
      {"measurement": "solubility", "setting": "[3]; MEK, value for Form X", "value": 127, "unit": "mg/mL"}
    ]},
    {"compound": "5-(3,3-dimethylbutyn-1-yl)-3-[(cis-4-hydroxy-4-{[(3S)-tetrahydrofuran-3-yloxy]methyl}cyclohexyl){[(1R)-4-methylcyclohex-3-en-1-yl]carbonyl}amino]thiophene-2-carboxylic acid solvate [Form V]", "values": [
      {"measurement": "Final Form after desolvation", "setting": "[1]", "value": "Amorphous"}
    ]},
    {"compound": "CC(C)O.CC1=CC[C@H](C(=O)N(c2cc(C#CC(C)(C)C)sc2C(=O)O)C2CCC(O)(CO[C@H]3CCOC3)CC2)CC1", "note": "(relative stereo) [Form VII, 5-(3,3-dimethylbutyn-1-yl)-3-[(cis-4-hydroxy-4-{[(3S)-tetrahydrofuran-3-yloxy]methyl}cyclohexyl){[(1R)-4-methylcyclohex-3-en-1-yl]carbonyl}amino]thiophene-2-carboxylic acid isopropyl alcohol solvate]", "values": [
      {"measurement": "solubility", "setting": "[3]; IPA, value for Form VII", "value": 266, "unit": "mg/mL"},
      {"measurement": "Final Form after desolvation", "setting": "[1]", "value": "Amorphous"}
    ]},
    {"compound": "CC1=CC[C@H](C(=O)N(c2cc(C#CC(C)(C)C)sc2C(=O)O)C2CCC(O)(CO[C@H]3CCOC3)CC2)CC1.CCO", "note": "(relative stereo) [Form IX, 5-(3,3-dimethylbutyn-1-yl)-3-[(cis-4-hydroxy-4-{[(3S)-tetrahydrofuran-3-yloxy]methyl}cyclohexyl){[(1R)-4-methylcyclohex-3-en-1-yl]carbonyl}amino]thiophene-2-carboxylic acid ethanol solvate]", "values": [
      {"measurement": "solubility", "setting": "[3]; EtOH, value for Form IX", "value": 283, "unit": "mg/mL"}
    ]}
  ]
}
